Measured values published in PubChem BioAssay (NCI).
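Assay format: 96-well plates, 48-hour exposure. The concentration for 50% growth inhibition is given as GI50. TGI denotes the concentration required for complete inhibition of growth.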

What was measured:
Assay in all cases: growth of human tumour cells (NCI), 48 h
[1] = test system: 786-0 renal
[2] = test system: A498 renal
[3] = test system: ACHN renal
[4] = test system: BT-549 breast
[5] = test system: CCRF-CEM leukemia
[6] = test system: COLO 205 colon
[7] = test system: DU-145 prostate
[8] = test system: EKVX NSCLC
[9] = test system: HCC-2998 colon
[10] = test system: HCT-116 colon
[11] = test system: HL-60(TB) leukemia
[12] = test system: HOP-92 NSCLC
[13] = test system: HT29 colon
[14] = test system: IGROV1 ovarian
[15] = test system: K-562 leukemia
[16] = test system: KM12 colon
[17] = test system: LOX IMVI melanoma
[18] = test system: M14 melanoma
[19] = test system: MALME-3M melanoma
[20] = test system: MDA-MB-231 breast
[21] = test system: MDA-MB-435
[22] = test system: MOLT-4 leukemia
[23] = test system: NCI-H226 lung
[24] = test system: NCI-H23 lung
[25] = test system: NCI-H460 lung
[26] = test system: NCI-H522 lung
[27] = test system: NCI/ADR-RES ovarian
[28] = test system: OVCAR-5 ovarian
[29] = test system: OVCAR-8 ovarian
[30] = test system: PC-3 prostate
[31] = test system: RPMI-8226 leukemia
[32] = test system: RXF 393 renal
[33] = test system: SF-268 CNS
[34] = test system: SF-295 CNS
[35] = test system: SF-539 CNS
[36] = test system: SK-MEL-2 melanoma
[37] = test system: SK-MEL-28 melanoma
[38] = test system: SK-MEL-5 melanoma
[39] = test system: SK-OV-3 ovarian
[40] = test system: SNB-19 CNS
[41] = test system: SNB-75 CNS
[42] = test system: SR leukemia
[43] = test system: T-47D breast
[44] = test system: TK-10 renal
[45] = test system: U251 CNS
[46] = test system: UACC-257 melanoma
[47] = test system: UACC-62 melanoma
[48] = test system: UO-31 renal
[49] = test system: HOP-62 NSCLC
[50] = test system: HS 578T breast
[51] = test system: OVCAR-3 ovarian

Compound: COc1ccc2nc3c(n2c1)C(=O)C(=O)c1ccccc1-3
- GI50 [1]: 2.07 µM
- TGI [1]: 4.4 µM
- GI50 [2]: 2.44 µM
- TGI [2]: 6.11 µM
- GI50 [3]: 1.46 µM
- TGI [3]: 2.77 µM
- GI50 [4]: 1.39 µM
- TGI [4]: 2.69 µM
- GI50 [5]: 2.6 µM
- TGI [5]: 6.62 µM
- GI50 [6]: 2.73 µM
- TGI [6]: 8.14 µM
- GI50 [7]: 1.66 µM
- TGI [7]: 3.18 µM
- GI50 [8]: 1.8 µM
- TGI [8]: 4.83 µM
- GI50 [9]: 1.83 µM
- TGI [9]: 3.63 µM
- GI50 [10]: 1.58 µM
- TGI [10]: 3.7 µM
- GI50 [11]: 2.23 µM
- TGI [11]: 5.57 µM
- GI50 [12]: 3.09 µM
- TGI [12]: 9.53 µM
- GI50 [13]: 2.59 µM
- TGI [13]: 6.19 µM
- GI50 [14]: 1.75 µM
- TGI [14]: 5.34 µM
- GI50 [15]: 0.939 µM
- TGI [15]: 6.09 µM
- GI50 [16]: 2.05 µM
- TGI [16]: 5.04 µM
- GI50 [17]: 0.466 µM
- TGI [17]: 1.89 µM
- GI50 [18]: 1.75 µM
- TGI [18]: 3.32 µM
- GI50 [19]: 1.55 µM
- TGI [19]: 2.93 µM
- GI50 [20]: 2.53 µM
- TGI [20]: 10.6 µM
- GI50 [21]: 0.192 µM
- TGI [21]: 0.353 µM
- GI50 [22]: 2.43 µM
- TGI [22]: 5.81 µM
- GI50 [23]: 2.03 µM
- TGI [23]: 4.89 µM
- GI50 [24]: 1.16 µM
- TGI [24]: 4.21 µM
- GI50 [25]: 1.63 µM
- TGI [25]: 3.65 µM
- GI50 [26]: 1.54 µM
- TGI [26]: 3.39 µM
- GI50 [27]: 2.06 µM
- TGI [27]: 6.58 µM
- GI50 [28]: 1.8 µM
- TGI [28]: 3.32 µM
- GI50 [29]: 2.41 µM
- TGI [29]: 9.36 µM
- GI50 [30]: 1.52 µM
- TGI [30]: 9.02 µM
- GI50 [31]: 1.52 µM
- TGI [31]: 5.36 µM
- GI50 [32]: 1.84 µM
- TGI [32]: 3.55 µM
- GI50 [33]: 2.05 µM
- TGI [33]: 5.15 µM
- GI50 [34]: 1.62 µM
- TGI [34]: 3.03 µM
- GI50 [35]: 1.82 µM
- TGI [35]: 3.24 µM
- GI50 [36]: 1.83 µM
- TGI [36]: 3.66 µM
- GI50 [37]: 1.89 µM
- TGI [37]: 3.52 µM
- GI50 [38]: 1.67 µM
- TGI [38]: 3.06 µM
- GI50 [39]: 1.75 µM
- TGI [39]: 3.57 µM
- GI50 [40]: 1.98 µM
- TGI [40]: 4.4 µM
- GI50 [41]: 1.4 µM
- TGI [41]: 2.77 µM
- GI50 [42]: 2.53 µM
- TGI [42]: 6.59 µM
- GI50 [43]: 2.02 µM
- TGI [43]: 5.5 µM
- GI50 [44]: 2.62 µM
- TGI [44]: 4.78 µM
- GI50 [45]: 1.51 µM
- TGI [45]: 2.85 µM
- GI50 [46]: 1.73 µM
- TGI [46]: 3.13 µM
- GI50 [47]: 1.47 µM
- TGI [47]: 2.9 µM
- GI50 [48]: 1.31 µM
- TGI [48]: 2.62 µM

Compound: CCCCCN1C(=O)/C(=c2\sc3n(c2=O)C2C(NN=3)N(CC)C(=O)N2CC)c2ccccc21 (centres undefined)
- GI50 [1]: 1.59 µM
- TGI [1]: 3.27 µM
- GI50 [2]: 0.274 µM
- TGI [2]: 1.67 µM
- GI50 [3]: 1.17 µM
- TGI [3]: 2.58 µM
- GI50 [4]: 2.41 µM
- TGI [4]: 10.7 µM
- GI50 [6]: 1.55 µM
- TGI [6]: 3.56 µM
- GI50 [7]: 2.01 µM
- TGI [7]: 4.52 µM
- GI50 [11]: 1.91 µM
- TGI [11]: 4.07 µM
- GI50 [49]: 1.62 µM
- TGI [49]: 3.83 µM
- GI50 [12]: 1.22 µM
- TGI [12]: 3.72 µM
- GI50 [50]: 1.03 µM
- TGI [50]: 4.48 µM
- GI50 [13]: 1.65 µM
- TGI [13]: 3.02 µM
- GI50 [14]: 1.65 µM
- TGI [14]: 4.15 µM
- GI50 [18]: 1.28 µM
- TGI [18]: 3.98 µM
- GI50 [20]: 1.87 µM
- TGI [20]: 4.34 µM
- GI50 [21]: 0.32 µM
- TGI [21]: 1.08 µM
- GI50 [24]: 1.83 µM
- TGI [24]: 5.23 µM
- GI50 [26]: 0.754 µM
- TGI [26]: 2.29 µM
- GI50 [51]: 1.41 µM
- TGI [51]: 3.01 µM
- GI50 [32]: 0.798 µM
- TGI [32]: 2.83 µM
- GI50 [33]: 1.49 µM
- TGI [33]: 3.77 µM
- GI50 [34]: 0.833 µM
- TGI [34]: 3.21 µM
- GI50 [35]: 1.3 µM
- TGI [35]: 2.61 µM
- GI50 [36]: 1.55 µM
- TGI [36]: 3.3 µM
- GI50 [39]: 1.44 µM
- TGI [39]: 2.92 µM
- GI50 [40]: 1.88 µM
- TGI [40]: 5.25 µM
- GI50 [41]: 0.26 µM
- TGI [41]: 1.37 µM
- GI50 [44]: 1.8 µM
- TGI [44]: 3.44 µM
- GI50 [45]: 1.31 µM
- TGI [45]: 2.72 µM
- GI50 [47]: 1.06 µM
- TGI [47]: 3.29 µM
